Data published in patent US20260345561A1, “METHODS AND COMPOSITIONS FOR USE IN TREATING AUTOSOMAL RECESSIVE POLYCYSTIC KIDNEY DISEASE (ARPKD)” (The General Hospital Corporation, priority 2022, published 2026).
“Also recorded” adds a separate entry of the source. Read-outs that look alike come from different tables or passages of the source.

What was measured:
[1] = racemic ketorolac 15 or 30 mg; Guo et al. 2015; cited from earlier work
PKHD1−/− organoids [2] = test: CDH1+ distal tubular enlargement / cyst formation by 3D imaging of cleared whole organoids-on-a-chip; format: cell-based, human; details: for cyst suppression: Z-DEVD-FMK 1 μM, Quercetagetin 10 μM, rhCXCL16 1 ng/ml (FIG. 3D, E)
Method: (§1) H9 (WiCell) human ES cells, H9-derived PKHD1 mutants, and ARPKD patient-derived iPSCs (68) were maintained on hESC-qualified Geltrex (Thermo Fisher Scientific) coated plates using StemFit® Basic02 (Ajinomoto Co., Inc.) supplemented with 10 ng/ml of FGF2 (Peprotech), as previously reported (69).
Heterozygotic (PKHD1+/−) and compound homozygotic (PKHD1−/−) mutant lines were generated using methodology previously outlined (70), which generated clones of isogenic progeny via clonal expansion from single cells. PX459 plasmid encoding a Streptococcus pyogenes Cas9 and guide RNA (sgRNA) targeting the third exon of PKHD1 (5′-[…]-3′; SEQ ID NO:1) was transfected into H9 hESCs to generate the heterozygotic mutant line, which then served as the parental line to generate the compound homozygotic mutant. Transfected cells were selected by transient puromycin treatment. CRISPR/Cas9-induced mutations of individual clones were identified by deep sequencing.
The organoids were seeded onto the chip devices on day 14 of their differentiation and cultured on chip by flowing cell culture medium composed of ARMPI with GlutaMAX, 1% Antibiotic/Antimycotic solution (Gibco), and 1.5% heat-inactivated fetal bovine serum (Gibco). All cell culture medium was pre-equilibrated to the cell culture incubator environment for at least 2 hr before chip assembly and seeding. The kidney organoids-on-a-chip was then held in a cell culture incubator for 30 min under static conditions, before connecting the inlet perfusion tubing to an IPC-N peristaltic pump (Ismatech) and perfusing the cell culture media at 42.7 μl/min overnight in the incubator. The following day (day 15 of organoid differentiation), the sterile filter was removed from the perfusion line to avoid bubble formation at high perfusion speeds, and the perfusion speed was ramped up to 4.27 mL/min. Cell culture medium was changed in the reservoir every 2-3 days.
Full media exchanges were conducted every 2-3 days. Treatment of the kidney organoids-on-a-chip was started at day 16 of their differentiation until day 35.
The chip device was taken out of the incubator for fixation, and the lid was carefully removed in a sterile biosafety cabinet. The kidney organoids adherent on the surface of the ECM were rinsed with PBS, carefully overlayed with 4% PFA, and fixed for 45 min at RT. Post fixation, the samples were washed three times with 0.1% Triton-X (Sigma) for 30 min. Organoids were stained and cleared with ethyl cinnamate (Sigma), as described before (78). The following antibodies were used in these studies: anti-CDH1 (Abcam, ab11512), anti-CFTR (Sigma, HPA021939), anti-LTL (Vector lab, B-1325), anti-PODXL (R&D systems, AF1658), anti-K167 (Dako, m7248), Anti-pS6RP (Cell signaling, 2211S), anti-RAC1 (Developmental Studies Hybridoma Bank, CPTC-RAC1-2), anti-FOS (Abcam, ab190289). Samples were examined by a Zeiss TIRF/LSM 710 confocal microscopy or a Leica […] 8 confocal microscopy, and by using Imaris 3D software (Bitplane).
(§2) Data in all bar charts and dot plots are expressed as mean±s.d. Statistical analysis was done in GraphPad Prism 9, and statistical significance was attributed to values of P<0.05 as determined by one-way ANOVA with Tukey's multiple-comparisons test unless otherwise noted. Different significance levels (P values) are indicated in each figure with asterisks: *P<0.05, **P<0.01, ***P<0.001, and ****P<0.0001. […] FIG. 1F; n=74 LTL+ tubules with flow, n=66 LTL+ tubules in static culture, n=191 LTL+ tubules treated with forskolin, n=32 CDH1+ tubules with flow, n=27 CDH1+ tubules in static culture, and n=104 CDH1+ tubules treated with forskolin. FIG. 2C; n=16 tubules transfected with siControl, n=17 tubules transfected with siKIF3A.

DUSP1 = test: qPCR for DUSP1 (FOS downstream gene); format: cell-based, human; details: PKHD1−/− and ARPKD patient-derived organoids, flow, T-5224 10 μM, day 16 to 23
Method: (§3) FIG. 2J; n=4 (perfusion), n=4 (rest). FIG. 2K; n=3. […] 3 independent experiments were performed for FIG. 3E. […] FIG. 4H; n=4 (control), n=4 (ARPKD). FIG. 4I; n=4 (control), n=4 (ARPKD).

NPTX2 = test: qPCR for NPTX2 (FOS downstream gene); format: cell-based, human; details: PKHD1−/− and ARPKD patient-derived organoids, flow, T-5224 10 μM, day 16 to 23
Method: as §3

PRDM1 [3] = test: qPCR for PRDM1 (FOS downstream gene); format: cell-based, human; details: PKHD1−/− and ARPKD patient-derived organoids, flow, T-5224 10 μM, day 16 to 23
Method: as §3

PRDM1 [4] = test: Quantitative immunohistochemistry for PRDM1; format: cell-based, human; details: PKHD1−/− organoids, T-5224 10 μM, day 23 (FIG. 5F)
Method: as §3

FOS = details: cited from earlier work
[5] = clinical trials for arthritis / humans (ref. 45); cited from earlier work
RAC1 = details: cited from earlier work
[6] = cited from earlier work
[7] = test system: ARPKD patient-derived organoids; details: prior ARPKD organoid model from patient-derived iPS cells, static culture (ref. 17); cited from earlier work
ARFIP2 [8] = details: flow, R-Naproxen 20 μM
Method: (§4) Total RNA was isolated from kidney organoid samples using TRIzol (Invitrogen, #15596026). cDNA was synthesized from 500 ng of RNA using a High-capacity cDNA Reverse Transcription kit (Applied Biosystems, #4368814) according to the manufacturer's instructions. Real-time PCR was performed using iTaq SYBR green supermix (Bio-Rad, #1725124) and QuantStudio3 Real-time PCR systems. The expression of mRNA was assessed by evaluating threshold cycle (CT) values. The CT values and relative expression levels were normalized by ribosomal protein S18 (RPS18), and the relative amount of mRNA specific to each of the target genes was calculated (n=3 in each experiment).
as §2, with “siKIF3A. 8 organoids transfected with siControl, and 7 organoids transfected with siKIF3A from 2 independent chips were analyzed in FIG. 2C.” for “siKIF3A.”

BAIAP2 = details: flow, R-Naproxen 20 μM
Method: as §4
as §2, with “siKIF3A. 8 organoids transfected with siControl, and 7 organoids transfected with siKIF3A from 2 independent chips were analyzed in FIG. 2C.” for “siKIF3A.”

ARFIP2 [9] = details: PKHD1−/− organoids, R-Naproxen 20 μM, day 23 (FIG. 5F)
Source text: as §2, with “siKIF3A. 8 organoids transfected with siControl, and 7 organoids transfected with siKIF3A from 2 independent chips were analyzed in FIG. 2C.” for “siKIF3A.”

COX = details: cited from earlier work
[10] = test system: ARPKD patient-derived organoids; test: Cyst formation on cAMP induction in static patient-derived organoids; format: cell-based, human
Method: as §1
Kidney organoids were cultured in static condition and treated with 20 μM of forskolin (Sigma, #F6886), a cAMP inducer, from day 14 to day 35.
as §3

PKHD1−/− organoids [11] = test: Cyst formation / tubular diameter on forskolin treatment in static culture; format: cell-based, human
Source text: as §2, with “siKIF3A. 8 organoids transfected with siControl, and 7 organoids transfected with siKIF3A from 2 independent chips were analyzed in FIG. 2C.” for “siKIF3A.”

[12] = PKHD1−/− organoids under flow, day 16 to 35
[13] = PKHD1−/− organoids under flow, day 16 to 35, T-5224 10 μM, NSC23766 10 μM, 2-MeOE2 5 μM (FIG. 3D, E)
[14] = PKHD1−/− organoids-on-a-chip, day 16 to 35, flow, R-Naproxen 20 μM, R-Ketorolac 1 and 10 μM, T-5224 10 μM (FIG. 4B, C)
[15] = ARPKD patient-derived organoids, day 16 to 23 (FIG. 14)
[16] = PKHD1−/− (CRISPR-mutant) organoids, day 16 to 23 (FIG. 5E)
[17] = forskolin 20 μM, static (FIG. 1F right)

O=C(c1ccccc1)c1ccc2n1CCC2C(=O)O (racemic) [racemic ketorolac]
R-ketorolac level [1]: achieved likely therapeutic ranges of R-ketorolac

Z-DEVD-FMK
cyst suppression (PKHD1−/− organoids [2]; [12]): marginal effect

O=C(O)CCc1cc(C(=O)c2ccc(OC3CCCC3)cc2O)ccc1OCc1ccc2c(O)noc2c1 [T-5224, 3-{5-[4-(cyclopentyloxy)-2-hydroxybenzoyl]-2-[(3-hydroxy-1,2-benzisoxazol-6-yl)methoxy]phenyl}propionic acid]
CDH1+ tubular enlargement (PKHD1−/− organoids [2]; [13]): significant reduction
CDH1+ tubular enlargement (PKHD1−/− organoids [2]; [14]): significant reductions
DUSP1 expression (qPCR) (DUSP1): reverse expression
NPTX2 expression (qPCR) (NPTX2): reverse expression
PRDM1 expression (qPCR) (PRDM1 [3]): reverse expression
PRDM1 expression (immunohistochemistry), decreased by flow (PRDM1 [4]): rescue
FOS inhibition (FOS): selective FOS inhibitor; also recorded: specific FOS inhibitor
safety profile [5]: favorable safety profile; also recorded: proven to be safe in humans

COc1ccc2cc([C@H](C)C(=O)O)ccc2c1 [S-Naproxen]
cyst formation (PKHD1−/− organoids [2]; PKHD1−/− organoids cultured under flow, S-Naproxen 20 μM (FIG. 11)): did not inhibit cyst formation
RAC1 inhibitory activity (RAC1): lacks RAC1 inhibitory activity
anti-inflammatory effect [6]: has an anti-inflammatory effect

Nc1ncnc2c1nc(Br)n2[C@@H]1O[C@@H]2COP(=O)(O)O[C@H]2[C@H]1O [8-Br-cAMP, 8-Bromoadenosine 3′,5′-cyclic monophosphate]
cyst formation in CDH1+ distal nephrons [7]: rarely developed cysts
cyst formation in LTL+ proximal tubules [7]: formed cystic structures

O=C(c1ccccc1)c1ccc2n1CC[C@H]2C(=O)O [R-Ketorolac]
CDH1+ tubular enlargement (PKHD1−/− organoids [2]; [14]): significant reductions
inhibitory effect against RAC1 (RAC1): inhibitory effect against RAC1

COc1cc2c(cc1O)CC[C@@H]1[C@@H]2CC[C@]2(C)[C@@H](O)CC[C@@H]12 [2-MeOE2, 2-Methoxyestradiol]
CDH1+ tubular enlargement (PKHD1−/− organoids [2]; [13]): significant reduction

CCN(CC)CCCC(C)Nc1nc(C)cc(Nc2ccc3nc(C)cc(N)c3c2)n1 (centres unmarked) [NSC23766]
CDH1+ tubular enlargement (PKHD1−/− organoids [2]; [13]): significant reduction

COc1ccc2cc([C@@H](C)C(=O)O)ccc2c1 [R-Naproxen]
CDH1+ tubular enlargement (PKHD1−/− organoids [2]; [14]): significant reductions
cyst suppression (general statement) (PKHD1−/− organoids [2]; present data, R-Naproxen): cyst suppression
ARFIP2 expression (qPCR) (ARFIP2 [8]; [15]): rescued
ARFIP2 expression (qPCR) (ARFIP2 [8]; [16]): rescued
BAIAP2 expression (qPCR) (BAIAP2; [15]): rescued
BAIAP2 expression (qPCR) (BAIAP2; [16]): rescued
ARFIP2 expression (immunohistochemistry), decreased by flow (ARFIP2 [9]): rescue
RAC1 inhibition (RAC1): enhanced RAC1 inhibition
inhibitory effect against RAC1 (RAC1): inhibitory effect against RAC1
COX inhibition (COX): limited COX inhibition

O=c1c(O)c(-c2ccc(O)c(O)c2)oc2cc(O)c(O)c(O)c12 [Quercetagetin]
cyst suppression (PKHD1−/− organoids [2]; [12]): did not affect cyst suppression

C=C[C@@]1(C)CC(=O)[C@]2(O)[C@@]3(C)[C@@H](O)CCC(C)(C)[C@@H]3[C@H](O)[C@H](OC(C)=O)[C@@]2(C)O1 [forskolin]
cyst formation ([10]; ARPKD patient-derived organoids, forskolin 5, 10, 20 μM (FIGS. 6A-G)): form cysts
cyst formation in LTL+ proximal tubules ([10]; static organoids derived from ARPKD-patient iPSCs): induced cyst formation
cyst formation (PKHD1−/− organoids [11]; forskolin 20 μM (FIGS. 8A-H)): form cysts
diameter in LTL+ CDH− (proximal) tubules (PKHD1−/− organoids [11]; [17]): increases
diameter in LTL− CDH1+ (distal) tubules (PKHD1−/− organoids [11]; [17]): increases
cyst formation in CDH1+ distal nephrons [7]: rarely developed cysts
cyst formation in LTL+ proximal tubules [7]: formed cystic structures

B1: rhCXCL16: recombinant human C—X—C Motif Chemokine Ligand 16 (rhCXCL16) for CXCL16 (protein, UniProt Q9H2A7 30-254, looked up)
C-X-C motif chemokine 16: NEGSVTGSCYCGKRISSDSPPSVQFMNRLRKHLRAYHRCLYYTRFQLLSWSVCGGNKDPWVQELMSCLDLKECGHAYSGIVAHQKHLLPTSPPISQASEGASSDIHTPAQMLLSTLQSTQRPTLPVGSLSSDKELTRPNETTIHTAGHSLAAGPEAGENQKQPEKNAGPTARTSATVPVLCLLAIIFILTAALSYVLCKRRRGQSPQSSPDLPVHYIPVAPDSNT
cyst suppression (PKHD1−/− organoids [2]; [12]): did not affect cyst suppression
